# What was measured:
# HSP90a protein = biological target: T1, HSP90a protein (Homo sapiens, UniProt P07900); assay: HSP90α-binding fluorescent polarization (FP) assay, BODIPY-labeled RNK04010 probe; settings: FP competition with RNK04010 (BODIPY-labeled), 5 nM, 300 min at 25° C.
# T1 construct: purchased BPS Bioscience 50298
# How it was run: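 Displacement of a 5 nM fluorescent HSP90 ligand from the N-terminal HSP90a domain by FP. Incubation ran at 25° C: 120 min for the FITC-geldanamycin tracer, 300 min for the BODIPY-conjugated triazolone RNK04010.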
# [1] = test system: MIA PaCa-2 human pancreatic carcinoma; assay: MIA PaCa-2 CCK-8 proliferation assay; format: cell-based; settings: Homo sapiens, MIA PaCa-2, 72 h, MIA PaCa-2 cells
# How it was run: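 CCK-8 absorbance readout; % inhibition = 100 − (compound − blank)/(DMSO − blank) × 100, blank = medium + DMSO, no cells. Dose range 20 μM down to 1.02 nM, 3-fold steps. KRAS(G12C) copy number: MIA PaCa-2 2; NCI-H358 1; NCI-H23 1.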
# KRAS(G12C) [2] = biological target: T2, KRAS(G12C) (Homo sapiens, UniProt P01116, G12C); assay: KRAS(G12C)/SOS1 homogeneous time-resolved fluorescence (HTRF) assay; parameters: purchased Cisbio 63ADK000CB16PEG; settings: absence of GTP, 4° C. for 3 hr, read-out: KRAS (G12C) binding
# T2 sequence (P01116 1-188 isoform P01116-2 G12C): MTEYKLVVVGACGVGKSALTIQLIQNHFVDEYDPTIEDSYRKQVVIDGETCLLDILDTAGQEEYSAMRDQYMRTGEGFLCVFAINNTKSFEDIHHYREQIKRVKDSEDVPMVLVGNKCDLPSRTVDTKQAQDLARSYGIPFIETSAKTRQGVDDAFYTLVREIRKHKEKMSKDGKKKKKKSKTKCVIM
# How it was run: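 HTRF kit measuring compound-induced block of KRAS(G12C)-SOS1 interaction without GTP. Compounds tested as 3-fold serial dilutions down to 1.02 nM, incubated with reaction components 3 h at 4 °C in sealed plates before fluorescence read.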
# KRAS(G12C) [3] = biological target: T2, KRAS(G12C); assay: KRAS(G12C) Western blot protein degradation assay in LU65A cells; format: cell-based; parameters: LU65A human lung cancer cell line, which expresses KRAS(G12C); host or cells: LU65A; settings: 6 hr
# How it was run: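 Cells treated with compound at various concentrations at 37 °C for 48 hr (MIA PaCa-2) or 6 hr (LU65A), then lysed in RIPA. Protein-normalized lysates immunoblotted for KRAS with β-actin, fluorescence quantified; DC50 is the concentration giving 50% of maximal KRAS degradation.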
IC50 (HSP90a protein),EC50 [1],IC50 (KRAS(G12C) [2]),DC50 (KRAS(G12C) [3]),SMILES
< 0.1 µM,0.1 to 1 µM,< 0.1 µM,> 1 µM,"C=CC(=O)N1CCN(c2nc(OC[C@@H]3CC[C@H](CN4CCN(Cc5ccc(-n6c(O)nnc6-c6cc(C)c(O)cc6O)cc5)CC4)N3C)nc3c2CCN(c2cccc4cccc(Cl)c24)C3)C[C@@H]1CC#N [Compound 227, 2-[(2S)-4-[7-(8-chloronaphthalen-1-yl)-2-{[(2S,5R)-5-{[4-({4-[3-(2,4-dihydroxy-5-methylphenyl)-5-hydroxy-1,2,4-triazol-4-yl]phenyl}methyl)piperazin-1-yl]methyl}-1-methylpyrrolidin-2-yl]methoxy}-5H,6H,8H-pyrido[3,4-d]pyrimidin-4-yl]-1-(prop-2-enoyl)piperazin-2-yl]acetonitrile]"
< 0.1 µM,< 0.1 µM,< 0.1 µM,0.1 to 1 µM,"C=CC(=O)N1CCN(c2nc(OC[C@@H]3C[C@H](N4CCC5(CCN(Cc6ccc(-n7c(O)nnc7-c7cc(C(C)C)c(O)cc7O)cc6)CC5)CC4)CN3C)nc3c2CCN(c2cccc4cccc(Cl)c24)C3)C[C@@H]1CC#N [Compound 334, 2-[(2S)-4-[7-(8-chloronaphthalen-1-yl)-2-{[(2S,4S)-4-[9-({4-[3-(2,4-dihydroxy-5-isopropylphenyl)-5-hydroxy-1,2,4-triazol-4-yl]phenyl}methyl)-3,9-diazaspiro[5.5]undecan-3-yl]-1-methylpyrrolidin-2-yl]methoxy}-5H,6H,8H-pyrido[3,4-d]pyrimidin-4-yl]-1-(prop-2-enoyl)piperazin-2-yl]acetonitrile]"
< 0.1 µM,0.1 to 1 µM,< 0.1 µM,> 1 µM,"C=CC(=O)N1CCN(c2nc(OC[C@@H]3C[C@H](N4CCC5(CCN(Cc6ccc(-n7c(O)nnc7-c7cc(C)c(O)cc7O)cc6)CC5)CC4)CN3C)nc3c2CCN(c2cccc4cccc(Cl)c24)C3)C[C@@H]1CC#N [Compound 228, 2-[(2S)-4-[7-(8-chloronaphthalen-1-yl)-2-{[(2S,4S)-4-[9-({4-[3-(2,4-Dihydroxy-5-methylphenyl)-5-hydroxy-1,2,4-triazol-4-yl]phenyl}methyl)-3,9-diazaspiro[5.5]undecan-3-yl]-1-methylpyrrolidin-2-yl]methoxy}-5H,6H,8H-pyrido[3,4-d]pyrimidin-4-yl]-1-(prop-2-enoyl)piperazin-2-yl]acetonitrile]"
< 0.1 µM,> 1 µM,< 0.1 µM,> 1 µM,"C=CC(=O)N1CCN(c2nc(OCC3CN(Cc4ccc(-n5c(O)nnc5-c5cc(C)c(O)cc5O)cc4)C3)nc3c2CCN(c2cccc4cccc(Cl)c24)C3)C[C@@H]1CC#N [Compound 232, (S)-2-(1-acryloyl-4-(7-(8-chloronaphthalen-1-yl)-2-((1-(4-(3-(2,4-dihydroxy-5-methylphenyl)-5-hydroxy-4H-1,2,4-triazol-4-yl)benzyl)azetidin-3-yl)methoxy)-5,6,7,8-tetrahydropyrido[3,4-d]pyrimidin-4-yl)piperazin-2-yl)acetonitrile]"
< 0.1 µM,0.1 to 1 µM,0.1 to 1 µM,> 1 µM,"C=CC(=O)N1CCN(c2nc(OCC3CN(C(=O)C4CCN(Cc5ccc(-n6c(C(=O)NCC(F)(F)F)nnc6-c6cc(C(C)C)c(O)cc6O)cc5)CC4)C3)nc3c2CCN(c2cccc4cccc(Cl)c24)C3)C[C@@H]1CC#N [Compound 220, (S)-4-(4-((4-(3-(((4-(4-acryloyl-3-(cyanomethyl)piperazin-1-yl)-7-(8-chloronaphthalen-1-yl)-5,6,7,8-tetrahydropyrido[3,4-d]pyrimidin-2-yl)oxy)methyl)azetidine-1-carbonyl)piperidin-1-yl)methyl)phenyl)-5-(2,4-dihydroxy-5-isopropylphenyl)-N-(2,2,2-trifluoroethyl)-4H-1,2,4-triazole-3-carboxamide]"
< 0.1 µM,0.1 to 1 µM,< 0.1 µM,> 1 µM,"C=CC(=O)N1CCN(c2nc(OC[C@@H]3C[C@H](N4CCC(C(=O)N5CCN(Cc6ccc(-n7c(C(=O)NC)nnc7-c7cc(C(C)C)c(O)cc7O)cc6)CC5)CC4)CN3C)nc3c2CCN(c2cccc4cccc(Cl)c24)C3)C[C@@H]1CC#N [Compound 234, 4-{4-[(4-{1-[(3S,5S)-5-({[7-(8-chloronaphthalen-1-yl)-4-[(3S)-3-(cyanomethyl)-4-(prop-2-enoyl)piperazin-1-yl]-5H,6H,8H-pyrido[3,4-d]pyrimidin-2-yl]oxy}methyl)-1-methylpyrrolidin-3-yl]piperidine-4-carbonyl}piperazin-1-yl)methyl]phenyl}-5-(2,4-dihydroxy-5-isopropylphenyl)-N-methyl-1,2,4-triazole-3-carboxamide]"
< 0.1 µM,0.1 to 1 µM,< 0.1 µM,0.1 to 1 µM,"C=CC(=O)N1CCN(c2nc(OC[C@@H]3C[C@H](C(=O)NCCc4ccc(CN5CCC(Cc6ccc(-n7c(C(=O)NCC(F)(F)F)nnc7-c7cc(C(C)C)c(O)cc7O)cc6)CC5)cc4)CN3C)nc3c2CCN(c2cccc4cccc(Cl)c24)C3)C[C@@H]1CC#N [Compound 346, 4-{4-[(1-{[4-(2-{[(3S,5S)-5-({[7-(8-chloronaphthalen-1-yl)-4-[(3S)-3-(cyanomethyl)-4-(prop-2-enoyl)piperazin-1-yl]-5H,6H,8H-pyrido[3,4-d]pyrimidin-2-yl]oxy}methyl)-1-methylpyrrolidin-3-yl]formamido}ethyl)phenyl]methyl}piperidin-4-yl)methyl]phenyl}-5-(2,4-dihydroxy-5-isopropylphenyl)-N-(2,2,2-trifluoroethyl)-1,2,4-triazole-3-carboxamide]"
< 0.1 µM,> 1 µM,0.1 to 1 µM,> 1 µM,"C=CC(=O)N1CCN(c2nc(OCC3CN(Cc4ccc(-n5c(O)nnc5-c5cc(C(C)C)c(O)cc5O)cc4)C3)nc3c2CCN(c2cccc4cccc(Cl)c24)C3)C[C@@H]1CC#N [Compound 231, (S)-2-(1-acryloyl-4-(7-(8-chloronaphthalen-1-yl)-2-((1-(4-(3-(2,4-dihydroxy-5-isopropylphenyl)-5-hydroxy-4H-1,2,4-triazol-4-yl)benzyl)azetidin-3-yl)methoxy)-5,6,7,8-tetrahydropyrido[3,4-d]pyrimidin-4-yl)piperazin-2-yl)acetonitrile]"
< 0.1 µM,> 1 µM,< 0.1 µM,0.1 to 1 µM,"C=CC(=O)N1CCN(c2nc(OC[C@@H]3C[C@H](C(=O)NCCOCCOc4ccc(-n5c(O)nnc5-c5cc(CC)c(O)cc5O)cc4)CN3C)nc3c2CCN(c2cccc4cccc(Cl)c24)C3)C[C@@H]1CC#N [Compound 349, (3S,5S)-5-({[7-(8-chloronaphthalen-1-yl)-4-[(3S)-3-(cyanomethyl)-4-(prop-2-enoyl)piperazin-1-yl]-5H,6H,8H-pyrido[3,4-d]pyrimidin-2-yl]oxy}methyl)-N-[2-(2-{4-[3-(5-ethyl-2,4-dihydroxyphenyl)-5-hydroxy-1,2,4-triazol-4-yl]phenoxy}ethoxy)ethyl]-1-methylpyrrolidine-3-carboxamide]"
< 0.1 µM,0.1 to 1 µM,< 0.1 µM,0.1 to 1 µM,"C=CC(=O)N1CCN(c2nc(OC[C@@H]3C[C@H](N4CCC(C(=O)N5CC6(CCN(Cc7ccc(-n8c(O)nnc8-c8cc(C(C)C)c(O)cc8O)cc7)CC6)C5)CC4)CN3C)nc3c2CCN(c2cccc4cccc(Cl)c24)C3)C[C@@H]1CC#N [Compound 348, 2-[(2S)-4-[7-(8-chloronaphthalen-1-yl)-2-{[(2S,4S)-4-{4-[7-({4-[3-(2,4-dihydroxy-5-isopropylphenyl)-5-hydroxy-1,2,4-triazol-4-yl]phenyl}methyl)-2,7-diazaspiro [3.5]nonane-2-carbonyl]piperidin-1-yl}-1-methylpyrrolidin-2-yl]methoxy}-5H,6-H,8H-pyrido[3,4-d]pyrimidin-4-yl]-1-(prop-2-enoyl)piperazin-2-yl]acetonitrile]"
–,0.1 to 1 µM,< 0.1 µM,0.1 to 1 µM,"C=CC(=O)N1CCN(c2nc(OC[C@@H]3C[C@H](N4CCN(CC5CCN(Cc6ccc(-n7c(O)nnc7-c7cc(C(C)C)c(O)cc7O)cc6)CC5)CC4)CN3C)nc3c2CCN(c2cccc4cccc(Cl)c24)C3)C[C@@H]1CC#N [Compound 275, 2-[(2S)-4-[7-(8-chloronaphthalen-1-yl)-2-{[(2S,4S)-4-(4-{[1-({4-[3-(2,4-dihydroxy-5-isopropylphenyl)-5-hydroxy-1,2,4-triazol-4-yl]phenyl}methyl)piperidin-4-yl]methyl}piperazin-1-yl)-1-methylpyrrolidin-2-yl]methoxy}-5H,6H,8H-pyrido[3,4-d]pyrimidin-4-yl]-1-(prop-2-enoyl)piperazin-2-yl]acetonitrile]"

# From patent US20230391772A1, “METHODS AND COMPOSITIONS FOR TARGETED PROTEIN DEGRADATION” (Ranok Therapeutics (Hangzhou) Co. Ltd., priority 2020, published 2023)
